Legend:
olfactory receptor OR8D1 [1] = biological target: T1, olfactory receptor OR8D1 (Homo sapiens, UniProt Q8WZ84); test: Antagonistic activity against the response of OR8D1 to sotolone (luciferase assay, rate of inhibition); assay type: cell-based; conditions: sotolone 100 μM and test substance 100 μM, OR8D1-expressing HEK293 cells
T1 construct: expressed in transfected cells; host or cells: HEK293
T1 sequence (Q8WZ84 1-308): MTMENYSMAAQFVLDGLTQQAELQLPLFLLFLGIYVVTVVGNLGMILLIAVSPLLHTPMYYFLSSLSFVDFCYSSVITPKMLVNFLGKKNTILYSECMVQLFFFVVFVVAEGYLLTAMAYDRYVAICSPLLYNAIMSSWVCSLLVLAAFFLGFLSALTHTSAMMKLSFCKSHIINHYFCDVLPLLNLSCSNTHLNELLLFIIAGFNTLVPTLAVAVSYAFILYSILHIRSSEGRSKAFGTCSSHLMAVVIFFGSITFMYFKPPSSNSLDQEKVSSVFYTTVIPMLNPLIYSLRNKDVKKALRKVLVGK
Method: 228 types of test substances were examined for their antagonistic activity against the response of the olfactory receptor OR8D1 to sotolone.
Sotolone (100 μM) and each test substance (100 μM) were added to HEK293 cells allowed to express the olfactory receptor OR8D1 by the same procedures as in Example 2. The response of the olfactory receptor was measured to evaluate change in receptor response caused by the addition of the test substance.
The rate of inhibition of the receptor response by the test substance was calculated as follows: firefly luciferase-derived luminescence intensity (Y) in the olfactory receptor OR8D1-expressing cells without sotolone stimulation was subtracted from firefly luciferase-derived luminescence intensity (X) induced by stimulation with sotolone alone to determine receptor activity (X−Y) based on the stimulation with sotolone alone. Likewise, the luminescence intensity (Y) in the cells without sotolone stimulation was subtracted from luminescence intensity (Z) induced by stimulation with the mixture of sotolone and the test substance to determine receptor activity (Z−Y) in the presence of the test substance. The rate of reduction in the receptor activity (Z−Y) in the presence of the test substance with respect to the receptor activity (X−Y) based on the stimulation with sotolone alone was calculated according to an expression shown below to determine the rate of inhibition of the receptor response by the test substance. In this assay, a plurality of independent duplicate experiments was performed. An average of the experiments in each run was obtained. Rate of inhibition (%)={1−(Z−Y)/(X−Y)}×100

olfactory receptor OR8D1 [2] = biological target: T1, olfactory receptor OR8D1; test: Luciferase reporter gene assay (cAMP) of olfactory receptor response to sotolone in HEK293 cells; assay type: cell-based
Source text: (§1) On the basis of sequence information registered in GenBank, each human olfactory receptor gene was cloned by PCR with Human Genomic DNA Female (G1521: Promega Corp.) as a template. Each gene thus amplified by PCR was inserted into a pENTR vector (Invitrogen Corp.) according to the manual. A NotI-AscI site present on the pENTR vector r was recombined into a NotI-AscI site prepared downstream of Flag-Rho tag sequence on a pME18S vector.
(§2) A gene (GenBank GI: 50234917) encoding a human receptor transport protein, RTP1S was inserted into the EcoRI-XhoI site of the pME18S vector.
(§3) HEK293 cells expressing each of 400 types of human olfactory receptors were prepared. […]
(§4) The olfactory receptors expressed on the HEK293 cells are conjugated with intracellular Gas to activate adenylate cyclase, thereby increasing intracellular cAMP levels. In this study, their responses to sotolone were measured using luciferase reporter gene assay which involved monitoring increase in intracellular cAMP level as luminescence intensity derived from a firefly luciferase gene (fluc2P-CRE-hygro). […]
(§5) A medium was removed from the cultures prepared in the preceding paragraph 3). […] The luciferase activity was measured using Dual-Glo™ luciferase assay system (Promega Corp.) according to the instruction manual of the product. […]

olfactory receptor OR8D1 [3] = biological target: T1, olfactory receptor OR8D1; conditions: Non-Patent Document 5; cited from earlier work
[4] = tested on: the other olfactory receptors (400 types of human olfactory receptors except OR8D1); test: Luciferase reporter gene assay of 400 types of human olfactory receptors, response to sotolone; assay type: cell-based; conditions: sotolone 1 mM, HEK293 cells expressing each receptor
Source text: as §1, §2, §3, §4, §5

SMILES	inhibition at 100 µM (olfactory receptor OR8D1 [1])	also measured
CC(=O)C1(C)CC2=C(CCCC2(C)C)CC1C (stereo not drawn) [Iso E Super, 7-acetyl-1,2,3,4,5,6,7,8-octahydro-1,1,6,7-tetramethyl-naphthalene]	≥ 50%	
C[C@@H]1CCCCCCCCCCCCC(=O)C1 [Muscone, muscone]		rate of inhibition of the response of OR8D1 to sotolone (olfactory receptor OR8D1 [1]): 40% or more rate of
CCCCCC(C=O)=Cc1ccccc1 [amylcinnamic aldehyde, 2-benzylideneheptanal]	≥ 50%	
CC(C)=CCCC(C)=CC=O [Citral, citral]	≥ 50%	
CC(=O)c1cc2c(cc1C)C(C)(C)C(C)CC2(C)C [Tonalid(R), 1-(5,6,7,8-tetrahydro-3,5,5,6,8,8-hexamethyl-2-naphthalenyl)-ethanone]	≥ 50%	
CC1=C(O)C(=O)OC1C (stereo not drawn) [sotolone, 3-Hydroxy-4,5-dimethyl-2(5H)-furanone]		concentration dependence of the response of OR8D1 to sotolone (olfactory receptor OR8D1 [2]; sotolone 0, 3, 10, 30, 100, 300, 1000 and 3000 μM, HEK293 cells with human RTP1S): concentration-dependent response; response of olfactory receptor OR8D1 to sotolone (olfactory receptor OR8D1 [2]; sotolone 1 mM, HEK293 cells expressing the receptor, 2.5 hours, fold increase of luminescence): exhibited a response; response of olfactory receptor OR8D1 induced by sotolone (reported) (olfactory receptor OR8D1 [3]): induces the response; response of the other olfactory receptors to sotolone [4]: did not respond
CC1C/C=C/CCCCCCCCCC(=O)C1 [Muscenone(R) Delta, (5E)-3-methylcyclopentadec-5-en-1-one]	≥ 50%	
CC(=O)C1=C(C)C2CC3(C1)C(C)CCC3C2(C)C (stereo not drawn) [acetylcedrene, 1-(2,3,4,7,8,8a-hexahydro-3,6,8,8-tetramethyl-1H-3a,7-methanoazulen-5-yl)-ethanone]	≥ 75%	
CC(C)(C)c1ccc(CCC=O)cc1 [bourgeonal, 3-(4-tert-butylphenyl)propanal]	≥ 50%	
